Test results taken from patent US9394268B2, “(E)-1-(5-methoxy-2,2-dimethyl-2H-chromen-8-yl)-3-(4-methoxyphenyl)prop-2-en-1-one and analogs thereof, as well as preparation method and use thereof” (Sichuan University, priority 2012, dated 2016).

Assays:
Assay type in all cases: cell-based
HepG2 = test: Cell proliferative assay (MTT), HepG2; settings: Homo sapiens, 72 h incubation, read-out: IC50s HepG2
Protocol: (§1) The synthesized compounds were evaluated for their cytotoxin activity against suspended tumor cells. These cells were seeded on 96-well plates and incubated for 24 h. Selected compounds were added at various doses and incubated for 72 h, MTT was then added, and the absorbance was measured at a wavelength of 590 nm. IC50 values are expressed as the mean±SEM from the dose-response curves of at least three independent experiments.

K562 = test: Cell proliferative assay (MTT), K562; settings: Homo sapiens, 72 h incubation, read-out: IC50s K562
Protocol: as §1

A549 = test: Cell proliferative assay (MTT), A549; settings: Homo sapiens, 72 h incubation, read-out: IC50s A549
Protocol: as §1

A375 = test: Cell proliferative assay (MTT), A375; settings: Homo sapiens, A-375, 72 h incubation, read-out: IC50s A375
Protocol: as §1

SMMC-7221 = test: Cell proliferative assay (MTT), SMMC-7221; settings: 72 h incubation, read-out: IC50s SMMC-7221
Protocol: as §1

LO2 = test: Cell proliferative assay (MTT), LO2; settings: Homo sapiens, L02, 72 h incubation, read-out: IC50s LO2
Protocol: as §1

| IC50 (HepG2) | IC50 (K562) | IC50 (A549) | IC50 (A375) | IC50 (SMMC-7221) | Compound | IC50 (LO2) |
| --- | --- | --- | --- | --- | --- | --- |
| > 10 µM | 8.75 µM | 17.1 µM | 9.6 µM | > 10 µM | CCN(CC)c1ccc(/C=C/C(=O)c2ccc(OC(C)=O)c3c2OC(C)(C)C=C3)cc1 [SKLBC-48, (E)-8-(3-(4-(diethylamino)phenyl)acryloyl)-2,2-dimethyl-2H-chromen-5-yl acetate] | > 20 µM |
| > 10 µM | > 10 µM | > 20 µM | > 10 µM | > 10 µM | CCCCC(=O)Oc1ccc(C(=O)/C=C/c2ccc(N(CC)CC)cc2)c2c1C=CC(C)(C)O2 [SKLBC-51, (E)-8-(3-(4-(diethylamino)phenyl)acryloyl)-2,2-dimethyl-2H-chromen-5-ylpentanoate] | 20 µM |
| 8.2 µM | 4.25 µM | > 10 µM | 3.75 µM | 3.38 µM | CCN(CC)c1ccc(/C=C/C(=O)c2ccc(OS(=O)(=O)C3CC3)c3c2OC(C)(C)C=C3)cc1 [SKLBC-53, (E)-8-(3-(4-(diethylamino)phenyl)acryloyl)-2,2-dimethyl-2H-chromen-5-yl cyclopropanesulfonate] | > 10 µM |
| 9.45 µM |  | 9.1 µM | > 10 µM | 0.59 µM | CCN(CC)c1ccc(/C=C/C(=O)c2ccc(OC(=O)C3C4C[C@H]5C[C@@H](C4)C[C@@H]3C5)c3c2OC(C)(C)C=C3)cc1 (some centres unmarked) [SKLBC-56, (1r,3r,5r,7r)-8-((E)-3-(4-(diethylamino)phenyl)acryloyl)-2,2-dimethyl-2H-chromen-5-yl adamantane-2-carboxylate] | > 10 µM |
| > 10 µM | > 10 µM | > 10 µM | > 10 µM | > 10 µM | COc1ccc(/C=C/C(=O)c2ccc(OC)c3c2OC(C)(C)C=C3)cc1OC(=O)Cc1cccc(C(F)(F)F)c1 [SKLBC-62, (E)-2-methoxy-5-(3-(5-methoxy-2,2-dimethyl-2H-chromen-8-yl)-3-oxoprop-1-en-1-yl)phenyl 2-(3-(trifluoromethyl)phenyl)acetate] |  |
| > 10 µM | > 10 µM | > 10 µM | > 10 µM | > 10 µM | COc1cccc(C(=O)Oc2cc(/C=C/C(=O)c3ccc(OC)c4c3OC(C)(C)C=C4)ccc2OC)c1 [SKLBC-63, (E)-2-methoxy-5-(3-(5-methoxy-2,2-dimethyl-2H-chromen-8-yl)-3-oxoprop-1-en-1-yl)phenyl 3-methoxybenzoate] |  |
| > 10 µM | > 10 µM | > 10 µM | > 10 µM | > 10 µM | COc1ccc(/C=C/C(=O)Oc2cc(/C=C/C(=O)c3ccc(OC)c4c3OC(C)(C)C=C4)ccc2OC)cc1 [SKLBC-64, (E)-2-methoxy-5-((E)-3-(5-methoxy-2,2-dimethyl-2H-chromen-8-yl)-3-oxoprop-1-en-1-yl)phenyl 3-(4-methoxyphenyl)acrylate] |  |
| 0.368 µM | 1.11 µM |  | 0.413 µM | 2.34 µM | COc1ccc(/C=C/C(=O)c2ccc(OC)c3c2OC(C)(C)C=C3)cc1OC(=O)c1ccc(Br)cc1 [SKLBC-66, (E)-2-methoxy-5-(3-(5-methoxy-2,2-dimethyl-2H-chromen-8-yl)-3-oxoprop-1-en-1-yl)phenyl 4-bromobenzoate] | 8.4 µM |
| 4.85 µM | 9.28 µM | 10 µM |  | > 10 µM | COc1ccc(/C=C/C(=O)c2ccc(OC)c3c2OC(C)(C)C=C3)cc1NCc1ccccc1 [SKLBC-90, (E)-3-(3-(benzylamino)-4-methoxyphenyl)-1-(5-methoxy-2,2-dimethyl-2H-chromen-8-yl)prop-2-en-1-one] | > 10 µM |
| 4.55 µM | 2.4 µM | > 10 µM |  | 5.1 µM | CCC(=O)Nc1cc(/C=C/C(=O)c2ccc(OC)c3c2OC(C)(C)C=C3)ccc1OC [SKLBC-93, (E)-N-(2-methoxy-5-(3-(5-methoxy-2,2-dimethyl-2H-chromen-8-yl)-3-oxoprop-1-en-1-yl)phenyl)propionamide] | 7.8 µM |
